By GI50 is commonly meant the concentration giving 50% growth inhibition. A lower GI50 goes with more potent growth inhibition.

Here are results for one compound from patent US10308631B2, “Selective anti-cancer compounds” (NATIONAL UNIVERSITY OF SINGAPORE, priority 2015, dated 2019).

What all share (format): cell-based
One test concerns SNU216. The test can be described thus: MTT growth inhibition (GI50). The conditions noted are these: Homo sapiens, SNU-216, SNU216, gastric cancer, 72 h. The protocol:
(§1) Having shown that Compound 1 and its derivatives are effective against HeLa cervical cancer cells and human fibroblast BJ cell lines, Compound 1 was then tested against a panel of thirty different human cancer cells lines derived from gastric, colon, liver, breast, lung and cervical tumours and five different human normal cell lines, which were normal fibroblast cell lines (BJ normal, IMR90, WI38) and retinal pigmented epithelium cell lines (ARPE-19, hTert-immortalized RPE-1).
(§2) The cell lines detailed in Table 2, below, were cultured in the media shown and treated with Compound 1 at a range of different concentrations (from 0.1 μM to 10 μM) for 72 h in triplicate and a mean concentration value for Compound 1 to achieve 50% growth inhibition (GI50) in each cell line was determined by use of the MTT assay.
(§3) The MTT assay was performed by adding thiazolyl blue tetrazolium bromide (MTT reagent, Invitrogen) at a concentration of 0.5 mg/mL to each cell culture and the resulting mixture incubated for 4 h at 37° C. The medium was then removed, and the blue dye remaining in each well was dissolved in DMSO by mixing with a microplate mixer. The absorbance of each well at 540 nm and 660 nm was measured using a microplate reader (Benchmark plus, BIO-RAD). The optical density (OD) values were calculated by subtracting the absorbance at 660 nm from the absorbance at 540 nm. Mean OD values from control cells containing only DMSO treated wells were set as 100%. The resulting GI50 values (in μM) are set out in Table 2 below.

A further test deals with MCF7. Briefly: MTT growth inhibition (GI50). The conditions noted are these: Homo sapiens, MCF7, breast cancer, 72 h. The procedure: as §1, §2, §3
In the next test the test system is A549. Briefly: MTT growth inhibition (GI50). Conditions: Homo sapiens, A549, cancer (others), 72 h. The protocol:
as §1, §2, §3

Another test deals with NCC59. The test can be described thus: MTT growth inhibition (GI50). The conditions noted are these: Homo sapiens, NCC59, gastric cancer, 72 h. The procedure:
as §1, §2, §3

The test system of the next test is SNU-16. The test can be described thus: MTT growth inhibition (GI50). The conditions noted are these: Homo sapiens, SNU-16, gastric cancer, 72 h. The procedure:
as §1, §2, §3

The next test relates to MKN45. Briefly: MTT growth inhibition (GI50). The conditions noted are these: Homo sapiens, MKN-45, MKN45, gastric cancer, 72 h. The protocol: as §1, §2, §3
For another test, the system named is MDA-MB-231. Briefly: MTT growth inhibition (GI50). Conditions: Homo sapiens, MDA-MB-231, breast cancer, 72 h. The procedure:
as §1, §2, §3

The next test has as its system WI38. Briefly: MTT growth inhibition (GI50). The conditions noted are these: Homo sapiens, WI-38, WI38, normal cell line, 72 h. The procedure: as §1, §2, §3
The next test deals with RPE-1/h-Tert. Briefly: MTT growth inhibition (GI50). Conditions: Homo sapiens, normal cell line, 72 h. The procedure:
as §1, §2, §3

Another test has as its system AZ521. The test can be described thus: MTT growth inhibition (GI50). Conditions: Homo sapiens, AZ-521, AZ521, gastric cancer, 72 h. The protocol: as §1, §2, §3
The test system of the next test is Huh7. Briefly: MTT growth inhibition (GI50). The conditions noted are these: Homo sapiens, Huh-7, Huh7, liver cancer, 72 h. The protocol: as §1, §2, §3
For a further test, the system named is HCT116. The test can be described thus: MTT growth inhibition (GI50). Conditions: Homo sapiens, HCT-116, HCT116, colon cancer, 72 h. The procedure:
as §1, §2, §3

The next test deals with NUGC3. Briefly: MTT growth inhibition (GI50). The conditions noted are these: Homo sapiens, NUGC-3, NUGC3, gastric cancer, 72 h. The protocol:
as §1, §2, §3

Another test concerns IMR90. The test can be described thus: MTT growth inhibition (GI50). Conditions: Homo sapiens, IMR-90, IMR90, normal cell line, 72 h. The procedure:
as §1, §2, §3

Another test deals with U2OS. Briefly: MTT growth inhibition (GI50). Conditions: Homo sapiens, cancer (others), 72 h. The procedure:
as §1, §2, §3

Another test deals with HGC27. Briefly: MTT growth inhibition (GI50). The conditions noted are these: Homo sapiens, HGC-27, HGC27, gastric cancer, 72 h. The procedure: as §1, §2, §3
The subject of another test is HeLa. Briefly: MTT growth inhibition (GI50). The conditions noted are these: Homo sapiens, cancer (others), 72 h. The protocol:
as §1, §2, §3

For the next test, the system named is IM95. Briefly: MTT growth inhibition (GI50). Conditions: Homo sapiens, IM95, gastric cancer, 72 h. The procedure:
as §1, §2, §3

The test system of another test is SNU620. The test can be described thus: MTT growth inhibition (GI50). The conditions noted are these: Homo sapiens, SNU620, gastric cancer, 72 h. The protocol:
as §1, §2, §3

The subject of another test is HCT15. Briefly: MTT growth inhibition (GI50). The conditions noted are these: Homo sapiens, HCT-15, HCT15, colon cancer, 72 h. The procedure: as §1, §2, §3
A further test concerns SNU1. Briefly: MTT growth inhibition (GI50). The conditions noted are these: Homo sapiens, SNU1, gastric cancer, 72 h. The procedure:
as §1, §2, §3

The subject of the next test is BJ Normal. The test can be described thus: MTT growth inhibition (GI50). Conditions: Homo sapiens, normal cell line, 72 h. The procedure:
as §1, §2, §3

For test [1], the system named is normal cell lines (panel of five). The test can be described thus: MTT growth inhibition, mean over normal cell line panel. The conditions noted are these: Homo sapiens, 72 h. The procedure:
FIG. 7 is a graphical representation showing that Compound 1 (a131) induces selective cell growth inhibitory effects in a broad spectrum of human cancer cells. A panel of cancer and normal cell lines were treated with Compound 1 (a131) for 72 h and a mean G150 value (the concentration required to achieve 50% growth inhibition) was determined. A Student's t-test indicated a statistically significant difference at p<0.05 (p=0.017) between normal cells and cancer cells treated with Compound 1 (a131). […]
The MTT assay was performed by adding thiazolyl blue tetrazolium bromide (MTT reagent, Invitrogen) at a concentration of 0.5 mg/mL to each cell culture and the resulting mixture incubated for 4 h at 37° C. […] The absorbance of each well at 540 nm and 660 nm was measured using a microplate reader (Benchmark plus, BIO-RAD). The optical density (OD) values were calculated by subtracting the absorbance at 660 nm from the absorbance at 540 nm. […]

The test system of test [2] is cleaved PARP and caspase-3 in oncogene-transformed human fibroblast BJ cells. The test can be described thus: Immunoblot of cleaved PARP and cleaved caspase-3. The conditions noted are these: 2.5 and 5 μM, 48 h. The procedure: FIGS. 5B, C provide a representation of an immunoblot analysis to examine the PARP or caspase-3 cleavage (B) and a histogram showing Caspase-3/7 activities, plotted as fold induction compared to DMSO-treated cells (C). BJ normal and transformed cells were treated with Compound 1 (a131) for 48 h. Cells were harvested and total lysates were analysed by detecting cleaved PARP or caspase-3 or caspase-3/7 activities as markers for apoptotic induction. […] Student's t-test was performed to determine the statistical significance (**=p<0.001, ***=p<0.0001, n.s.=no significance).
Whether Compound 1 (a131)-induced cancer cell-lethality was mediated by apoptosis or non-apoptotic programmed cell death was determined. For this purpose, isogenic non-transformed and oncogene-transformed human fibroblast BJ cell lines were cultured in DMEM supplemented with 10% FBS. The cells were treated with Compound 1 (2.5 μM and 5 μM, DMSO). 48 h after treatment, total cell lysates were prepared for immunoblot analysis using antibodies against cleaved PARP and cleaved caspase-3, well-known markers for apoptosis. In addition, a fraction of total cell lysates was also subjected to Caspase-3/7 Glo (Promega) assay to measure the combined activity of caspase 3/7. This was determined using caspase-Glo 3/7 Assay Kit (Promega) and its activity was normalized to a number of viable cells as determined by MTT assay.
(In general: A western blot detects proteins with antibodies after separation by electrophoresis.)

As to `N#C/C(=C\c1cccc2cnccc12)c1c[nH]c2ccccc12` [Compound 1, (Z)-2-(1H-indol-3-yl)-3-(isoquinolin-5-yl)acrylonitrile], the GI50 in the test on SNU216 came out at 1900 nM; in the test with MCF7, 1200 nM; with A549, 2000 nM; in the test with NCC59 it was 900 nM; in the test with SNU-16, 1000 nM; with MKN45, 1000 nM. Besides, the GI50 was 1100 nM with MDA-MB-231; 3400 nM in the test on WI38; 5200 nM in the test with RPE-1/h-Tert; 2400 nM with AZ521; 1200 nM in the test with Huh7; 1800 nM in the test with HCT116. In addition, the GI50 in the test on NUGC3 is 1000 nM; with IMR90, 5800 nM; in the test with U2OS, 1500 nM; in the test on HGC27, 1200 nM; in the test on HeLa it was 1400 nM; in the test on IM95, 1000 nM. Moreover, the GI50 turned out to be 1000 nM in the test on SNU620; 500 nM in the test on HCT15; 900 nM in the test on SNU1; 8100 nM in the test with BJ Normal; 6500 nM in [1]. Besides, in test [2], the “levels of cleaved PARP and caspase-3” value was “markedly increased the levels of both cleaved PARP and caspase-3”.
